Test results: paper PMC9691367, “The PROTAC selectively degrading Bcl-xL represents a novel Hedgehog pathway inhibitor with capacity of combating resistance to Smoothened inhibitors while sparing bone growth” (Theranostics, 2022)
pIC50: −log10 of the molar value. One block for each compound: values may come before it. Peptide text beside a SMILES is read from it. * marks the point of attachment. Cbz = O=C(OCc1ccccc1)*

Key:
[1] = tested on: platelets; experiment: Platelet toxicity assay in C57BL/6J mice; assay type: in vivo, mouse; conditions: SIAIS361034 single i.p. 50 and 100 mg/kg, ABT-263 single p.o. 100 mg/kg, 8 h and 24 h
Text: Blood was collected at different time points via retro-orbital bleeding in anticoagulation tube. Platelets or different blood cells were enumerated using BM800 blood analyzer (Bowlinman Sunshine).

[2] = target: T1, Bcl-xL (Mus musculus, UniProt Q64373); experiment: Western blot of Bcl-xL degradation in NIH-3T3 cells; assay type: cell-based; conditions: for effect of pretreatment on SIAIS361034-induced Bcl-xL degradation: pretreated 2 h with ABT-263 1 µM, Pomalidomide 10 µM or MG132 1 µM, then SIAIS361034 24 h
T1 construct: endogenous in cells; host or cells: NIH-3T3
Experimental: (§1) Cells were lysed in cell lysis buffer (50 mM Tris pH 8.0, 150 mM NaCl, 10% glycerol, 1 mM EDTA, 50 mM NaF, and 0.1% NP-40) supplemented with protease and phosphatase inhibitors. Total protein extracts of tissues were generated in radioimmunoprecipitation (RIPA) assay lysis buffer containing complete protease and phosphatase inhibitor cocktail. Protein content was quantified using the Pierce BCA Protein Assay Kit (#23225, Thermo Fisher Scientific). The proteins were separated by SDS-PAGE, electrophoretically transferred to polyvinylidene difluoride (PVDF) blotting membranes (#LC2002, Thermo Fisher Scientific), and subjected to routine immunoblot analysis with primary antibodies as follows: anti-Bcl-2 (#15071), anti-Mcl-1 (#94296), anti-VHL (#68547), anti-CRBN (#71810), and anti-Sufu (#2522) were obtained from Cell Signaling Technology (Danvers, Massachusetts, USA); anti-Bcl-xL (#ab32370), anti-Gli1 (#ab134906), and anti-Smoothened (#ab236465) were obtained from Abcam (Cambridge, CB2 0AX, UK); anti-GAPDH (#60004-1-Ig) and anti-β-tubulin (#10094-1-AP) were purchased from Proteintech Group, Inc. (Rosemont, IL 60018, USA). The results were quantified by densitometry using ImageJ software (NIH).

[3] = tested on: NF-κB signaling pathway; experiment: NF-κB luciferase reporter assay in 293T cells; assay type: cell-based; conditions: TNF-α 10 ng/mL, 6 h, SIAIS361034 10 μM, BAY 11-7082 20 μM
Experimental: (§2) Cells seeded in 96-well plates were treated with various treatments as indicated. The luciferase activity in the cell lysates was measured using Dual-Luciferase Reporter Assay System (Promega, Madison, WI, USA) according to the manufacturer's instructions in a luminometer (Molecular Devices, Sunnyvale, CA). The firefly luciferase values were normalized to Renilla values. […]
Data represent mean ± SD (n = 3). (B) NF-κB luciferase analysis of the effect of SIAIS361034 on NF-κB signaling pathway in 293T cells.The 293T cells were transfected with NF-κB luciferase reporter and Renilla-TK plasmids and […]
μM) for 6 h. Data represent mean ± SD (n = 3). […]
(§3) Data represent mean ± SD (n = 3).
(§4) (1 picture or pasted object on this page, not shown here)

[4] = tested on: bone growth of young mice; experiment: Bone growth of young mice (body weight, Micro-CT, H&E, IHC); assay type: in vivo, mouse; conditions: for body size: 5-week-old mice after treatment from P12 to P16; for femur length (Micro-CT, in words): mice at 6 weeks of age, treated P12 to P16; for levels of Bcl-xL in femurs (IHC): mice treated P12 to P16; for expression levels of Gli1 in femurs (IHC): mice treated P12 to P16, compared with Vehicle
Experimental: Skeleton Micro-CT images of mice were taken under anesthesia. The femurs were fixed and stored in 4% PFA at 4 °C. Mice and femurs were scanned using Inveon PET-CT (Siemens). Bone tissues were computed with Inveon Acquisition Workplace (IAW). Image data were visualized and analyzed by Inveon Viewer.
Femurs were fixed in 4% PFA and decalcified in 14% EDTA for 2 weeks at 4 °C. Bone tissues were embedded in paraffin. Thin sections were stained with hematoxylin and eosin (H&E) according to the manufacturer's instructions. For immunohistochemistry (IHC), paraffin-embedded sections of femurs were baked at 60 °C for 20 min, deparaffinized by xylene for 25 min, rehydrated through ethanol series, and incubated with citrate buffer at 95 °C for 20 min for antigen retrieval. Sections were incubated with the primary antibodies as indicated overnight at 4 °C, followed by goat anti-rabbit secondary antibody. The primary antibodies used in this study include Bcl-xL (1:2000, ab178844, Abcam) and Gli1 (1:100, 101156-T10, Sino Biological).

[5] = tested on: Hh pathway (Gli-luciferase) provoked by Smo WT / Smo mutants; experiment: Dual luciferase reporter assay, Hh activity induced by ectopic Smo WT or Smo mutants in light II cells; assay type: cell-based; conditions: Smo WT, D473H, H231R, W281C, W535L, L412F, F460L, GDC-0449 10 μM (Figure S3B-D)
Text: (§5) The TCF/LEF luciferase reporter plasmid, NF-κB luciferase reporter plasmid, and TK-Renilla luciferase plasmid were purchased from Promega (Madison, WI, USA). Smo plasmid was purchased from Origene (Rockville, MD, USA). The Smo mutant plasmids were generated from wild type Smo plasmid using QuickChange Site-Directed Mutagenesis kit from Agilent (Santa Clara, CA, USA) and confirmed by sequencing. Information on Smo mutants plasmids is provided in Supplementary data 2. The Gli1 plasmid and Gli2-HA plasmid were obtained from Addgene (Cambridge, MA, USA). Transient transfections were performed by Lipofectamine 2000 reagent from Invitrogen (Grand Island, NY, USA) according to the manufacturer's instructions.
(§6) Cells seeded in 96-well plates were treated with various treatments as indicated. The luciferase activity in the cell lysates was measured using Dual-Luciferase Reporter Assay System (Promega, Madison, WI, USA) according to the manufacturer's instructions in a luminometer (Molecular Devices, Sunnyvale, CA). The firefly luciferase values were normalized to Renilla values.

[6] = tested on: hair growth and Hh pathway activity in skin; experiment: Depilatory mouse model; assay type: in vivo
Experimental: For Depilatory model studies, male C57BL/6J mice (7 to 8 weeks of age) were purchased from Shanghai Lingchang Biotechnology Co. (Shanghai, China). After 2 days of acclimation, only healthy mice were used in the experiment. The back skin of the anesthetized mice was shaved and depilated using the depilatory Nair (Church & Dwight Co., Inc.). After 4 days, the depilated mice were randomized into groups for treatments as indicated. The back skin phenotypes were recorded by taking pictures every 3 days. Skin tissues were harvested 6 h after the last dosage to examining Gli1 mRNA expression as well as Gli1 and Bcl-xL protein levels.

[7] = tested on: Hh pathway (Gli-luciferase) provoked by Gli2; experiment: Dual luciferase reporter assay, Hh activity initiated by ectopic Gli2-HA in light II cells; assay type: cell-based; conditions: for pIC50: ectopic Gli2-HA, 36 h
Text: as §5, §6

[8] = tested on: medulloblastoma sensitive to Smo inhibitors; parameters: method as in PMID 19716296; conditions: GDC-0449 50 mg/kg; cited from earlier work
[9] = tested on: SmoA1 (Smo W539L) medulloblastoma tumor; experiment: SmoA1 medulloblastoma allograft in nude mice; assay type: in vivo, mouse
Text: For in vivo SmoA1 MB allograft studies, SmoA1 spontaneous MB tumors were obtained from ND2:SmoA1 transgenic mice as previously described. Male nude mice (4 to 5 weeks of age) were purchased from Shanghai Lingchang Biotechnology Co. (Shanghai, China). Spontaneous tumors were harvested and subcutaneously allografted into nude mice. When the tumor volumes reached approximately 2000 mm^3, they were harvested and further subcutaneously allografted into nude mice. When the tumor volumes reached about 150 to 200 mm^3, the tumor-bearing mice were randomly assigned into vehicle and treatment groups. Mice were weighed every 3 days. Tumor size was measured once every 3 days using microcaliper. Tumor volume (V) was determined using the following formula: V = (L×W^2) ×0.5, where L is length, and W is width in mm. Tumor tissues were harvested 6 h after the last dosage to examining Gli1 mRNA expression and protein levels. SIAIS361034 for i.p. administration was formulated in 0.5% sodium carboxymethyl cellulose (CMC-Na). All in vivo studies above were approved by and conformed to the policies and regulations of the Animal Care and Use Committee of Fudan University, China.

[10] = tested on: Wnt signaling pathway; experiment: TCF/LEF luciferase reporter assay in LS174T cells; assay type: cell-based; conditions: PGE2 1 μM, 24 h, SIAIS361034 10 μM, H-89 20 μM
Experimental: as §2
μM) for 6 h. Data represent mean ± SD (n = 3). (C) TCF/LEF luciferase analysis of the effect of SIAIS361034 on Wnt signaling pathway in LS174T cells. The LS174T cellswere transfected with TCF/LEF luciferase reporter and Renilla-TK plasmids and […]
as §3, §4

[11] = tested on: Gli1; experiment: Western blot of Gli1 in light II cells; assay type: cell-based; conditions: 1 µM
Experimental: as §1

[12] = tested on: Hh pathway (Gli-luciferase) in light II cells; experiment: Dual luciferase reporter assay, Gli-luciferase provoked by SAG in light II cells; assay type: cell-based; conditions: SAG 100 nM; for effect of pretreatment on Gli-luciferase activity suppressed by SIAIS361034: pretreated 2 h with MG132 1 µM or Pomalidomide 10 µM, then SIAIS361034 1 µM
Experimental: as §6

T1 sequence (Q64373 whole entry): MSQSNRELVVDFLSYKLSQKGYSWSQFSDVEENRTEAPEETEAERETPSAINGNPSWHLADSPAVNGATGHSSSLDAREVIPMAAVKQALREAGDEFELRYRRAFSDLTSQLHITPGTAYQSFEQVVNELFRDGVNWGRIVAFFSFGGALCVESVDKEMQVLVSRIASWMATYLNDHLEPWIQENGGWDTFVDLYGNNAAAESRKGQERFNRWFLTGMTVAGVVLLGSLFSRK

SMILES: CC1(C)CCC(c2ccc(Cl)cc2)=C(CN2CCN(c3ccc(C(=O)NS(=O)(=O)c4ccc(N[C@H](CCN5CCOCC5)CSc5ccccc5)c(S(=O)(=O)C(F)(F)F)c4)cc3)CC2)C1 [ABT-263, reference compound]
- number of platelets [1]: severe thrombocytopenia
- effect of pretreatment on SIAIS361034-induced Bcl-xL degradation [2]: abolished the SIAIS361034-induced Bcl-xL degradation

SMILES: Cc1ccc(S(=O)(=O)/C=C/C#N)cc1 [BAY 11-7082, reference compound]
- NF-κB luciferase activity activated by TNF-α [3]: significantly impeded

SMILES: Cc1ncsc1-c1ccc([C@H](C)NC(=O)[C@@H]2C[C@@H](O)CN2C(=O)[C@@H](NC(=O)CCCCCC(=O)N2CCN(CC[C@H](CSc3ccccc3)Nc3ccc(S(=O)(=O)NC(=O)c4ccc(N5CCN(CC6=C(c7ccc(Cl)cc7)CCC(C)(C)C6)CC5)cc4)cc3S(=O)(=O)C(F)(F)F)CC2)C(C)(C)C)cc1 [DT2216]
- body size [4]: smaller body sizes
- femur length (Micro-CT, in words) [4]: obvious shortening of the femur
- levels of Bcl-xL in femurs (IHC) [4]: reduced
- expression levels of Gli1 in femurs (IHC) [4]: significantly suppressed
- rate of weight growth ([4]; young mice treated from P12 to P16): decelerated the rate of weight growth

- pIC50 [7]: < 5.00
SMILES: CS(=O)(=O)c1ccc(C(=O)Nc2ccc(Cl)c(-c3ccccn3)c2)c(Cl)c1 [GDC-0449, reference compound]
- Hh activity provoked by wild type Smo and Smo mutants [5]: little appreciable effect
- hair growth during depilation-induced hair regeneration ([6]; male C57BL/6J mice, administered after 4 days of depilation): significantly retarded hair growth
- Gli1 and Bcl-xL protein levels in skin tissues ([6]; skin harvested 6 h after the last dosage, western blot): no effect on the levels of Bcl-xL
- body size [4]: smaller body sizes
- femur length (Micro-CT, in words) [4]: obvious shortening of the femur
- levels of Bcl-xL in femurs (IHC) [4]: No change
- expression levels of Gli1 in femurs (IHC) [4]: significantly suppressed
- Hh activity evoked by ectopic expression of Gli2 [7]: no effect
- TGI [8]: 100%
- growth of SmoA1 tumors ([9]; nude mice, SIAIS361034 50 mg/kg, GDC-0449 50 mg/kg p.o.): obvious resistance
- expression of Gli1 mRNA in tumor tissues ([9]; tumors harvested 6 h after the last dosage, RT-qPCR): no alteration

SMILES: O=S(=O)(NCCNC/C=C/c1ccc(Br)cc1)c1cccc2cnccc12 [H-89, reference compound]
- TCF/LEF luciferase activity (Wnt signaling) activated by PGE2 [10]: significantly inhibited

SMILES: Cc1sc2c(c1C)C(c1ccc(Cl)cc1)=N[C@@H](CC(=O)OC(C)(C)C)c1nnc(C)n1-2 [JQ1, reference compound]
- Gli1 protein level [11]: reduced Gli1 protein

SMILES: CC(C)C[C@@H](C=O)NC(=O)[C@H](CC(C)C)NC(=O)[C@H](CC(C)C)NC(=O)OCc1ccccc1 [MG132, reference compound] (Cbz-Leu-Leu-Leu-aldehyde)
- effect of pretreatment on SIAIS361034-induced Bcl-xL degradation [2]: obviously abolished SIAIS361034-induced Bcl-xL degradation
- effect of pretreatment on Gli-luciferase activity suppressed by SIAIS361034 [12]: abolished the suppressed Gli-luciferase activity

SMILES: Nc1cccc2c1C(=O)N(C1CCC(=O)NC1=O)C2=O (centres unmarked) [Pomalidomide, reference compound]
- effect of pretreatment on SIAIS361034-induced Bcl-xL degradation [2]: obviously abolished SIAIS361034-induced Bcl-xL degradation
- effect of pretreatment on Gli-luciferase activity suppressed by SIAIS361034 [12]: abolished the suppressed Gli-luciferase activity

- pIC50 [7]: 5.75
- Bcl-xL degradation ([2]; 1 µM, western blot): failed to degrade Bcl-xL
- pIC50 ([12]; 36 h, read-out: IC50 value inhibiting the Gli-luciferase activity provoked by SAG): 5.50
SMILES: CN1C(=O)CCC(N2Cc3c(C#CCCCN4CCN(CCCNc5ccc(S(=O)(=O)NC(=O)c6ccc(N7CCN(CC8=C(c9ccc(Cl)cc9)CCC(C)(C)C8)CC7)cc6)cc5S(=O)(=O)C(F)(F)F)CC4)cccc3C2=O)C1=O (centres unmarked) [SIAIS361034NC]
